Measured values: PubChem BioAssay AID248 (DTP/NCI, 2004)
Where “and” joins values, the source holds several entries; their conditions need not be identical. Equal values may be shown once. Inconclusive results and toxic doses are left out. Cut-off read from the data, not from the text of the source: active = T/C of 150% or more; inactive = T/C below 125%.

Test system: L1210 leukemia ip in BDF1 mice, survival T/C
Experiment: NCI In Vivo Anticancer Drug Screen. Data for tumor model L1210 Leukemia (intraperitoneal) in B6D2F1 (BDF1) mice
Details: endpoint: mean survival time, higher = longer survival
Outline: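 In this screen, tumor-bearing mice given compound are compared to those given vehicle, and their survival values are reported as a treated-to-control quotient.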

[1] = dose: 50.0 mg/kg/injection, schedule: Q01DX009 (ip), vehicle: saline with Tween-80
[2] = dose: 100.0 mg/kg/injection, schedule: Q01DX009 (ip), vehicle: saline with Tween-80
[3] = dose: 200.0 mg/kg/injection, schedule: Q01DX009 (ip), vehicle: saline with Tween-80
[4] = dose: 50.0 mg/kg/injection, schedule: Q04DX003 (ip), vehicle: saline with Tween-80
[5] = dose: 100.0 mg/kg/injection, schedule: Q01DX001 (ip), vehicle: saline with Tween-80
[6] = dose: 100.0 mg/kg/injection, schedule: Q04DX002 (ip), vehicle: saline with Tween-80
[7] = dose: 100.0 mg/kg/injection, schedule: Q04DX003 (ip), vehicle: saline with Tween-80
[8] = dose: 200.0 mg/kg/injection, schedule: Q01DX001 (ip), vehicle: saline with Tween-80
[9] = dose: 200.0 mg/kg/injection, schedule: Q04DX002 (ip), vehicle: saline with Tween-80
[10] = dose: 200.0 mg/kg/injection, schedule: Q04DX003 (ip), vehicle: saline with Tween-80
[11] = dose: 400.0 mg/kg/injection, schedule: Q01DX001 (ip), vehicle: saline with Tween-80
[12] = dose: 400.0 mg/kg/injection, schedule: Q04DX002 (ip), vehicle: saline with Tween-80
[13] = dose: 400.0 mg/kg/injection, schedule: Q04DX003 (ip), vehicle: saline with Tween-80
[14] = dose: 16.0 mg/kg/injection, schedule: Q01DX001 (ip), vehicle: carboxymethylcellulose (CMC)
[15] = dose: 31.0 mg/kg/injection, schedule: Q01DX001 (ip), vehicle: carboxymethylcellulose (CMC)
[16] = dose: 62.0 mg/kg/injection, schedule: Q01DX001 (ip), vehicle: carboxymethylcellulose (CMC)
[17] = dose: 125.0 mg/kg/injection, schedule: Q01DX001 (ip), vehicle: carboxymethylcellulose (CMC)
[18] = dose: 250.0 mg/kg/injection, schedule: Q01DX001 (ip), vehicle: carboxymethylcellulose (CMC)
[19] = dose: 375.0 mg/kg/injection, schedule: Q01DX001 (ip), vehicle: carboxymethylcellulose (CMC)
[20] = dose: 500.0 mg/kg/injection, schedule: Q01DX001 (ip), vehicle: carboxymethylcellulose (CMC)
[21] = dose: 25.0 mg/kg/injection, schedule: Q04DX003 (ip), vehicle: saline with Tween-80
[22] = dose: 100.0 mg/kg/injection, schedule: Q01DX009 (ip), vehicle: Klucel (hydroxypropylcellulose) (HPC)
[23] = dose: 200.0 mg/kg/injection, schedule: Q01DX009 (ip), vehicle: Klucel (hydroxypropylcellulose) (HPC)
[24] = dose: 400.0 mg/kg/injection, schedule: Q01DX009 (ip), vehicle: Klucel (hydroxypropylcellulose) (HPC)

Measured: T/C

COc1ccc(C)cc1NC(=O)OCCOc1ccc(NC(C)=O)cc1
inactive: [1] 98 % of control | [2] 95 % of control | [3] 95 % of control

BrCOCCCCOCBr
inactive: dose: 44.0 mg/kg/injection, schedule: Q01DX009 (ip), vehicle: saline with Tween-80 109 % of control | dose: 50.0 mg/kg/injection, schedule: Q01DX001 (ip), vehicle: saline with Tween-80 102 % of control | [1] 108 % of control | dose: 50.0 mg/kg/injection, schedule: Q04DX002 (ip), vehicle: saline with Tween-80 105 % of control | [4] 110 % of control | dose: 67.0 mg/kg/injection, schedule: Q01DX009 (ip), vehicle: saline with Tween-80 112 % of control | [5] 102 % of control | [2] 109 % of control | [6] 107 % of control | [7] 107 % of control | dose: 150.0 mg/kg/injection, schedule: Q01DX009 (ip), vehicle: saline with Tween-80 107 % of control | [8] 104 % of control | [3] 104 % of control | [9] 105 % of control | [10] 109 % of control | [11] 107 % of control | [12] 91 % of control | [13] 103 % of control

CCC(CCl)NC(=O)N(N=O)C(CC)CCl (stereo unspecified)
inactive: [14] 96 % of control | [15] 102 % of control | [16] 95 % of control | [17] 101 % of control | [18] 91 % of control | [19] 91 % of control | [20] 101 % of control | dose: 750.0 mg/kg/injection, schedule: Q01DX001 (ip), vehicle: carboxymethylcellulose (CMC) 91 % of control | dose: 1000.0 mg/kg/injection, schedule: Q01DX001 (ip), vehicle: carboxymethylcellulose (CMC) 93 % of control | dose: 1500.0 mg/kg/injection, schedule: Q01DX001 (ip), vehicle: carboxymethylcellulose (CMC) 98 % of control

CN(C)N=Nc1ccc(CCCC(=O)NN)cc1
inactive: dose: 18.0 mg/kg/injection, schedule: Q01DX009 (ip), vehicle: other 103 % of control | dose: 22.0 mg/kg/injection, schedule: Q01DX Z (ip), vehicle: carboxymethylcellulose (CMC) 114 % of control | dose: 28.0 mg/kg/injection, schedule: Q01DX009 (ip), vehicle: other 111 % of control | dose: 100.0 mg/kg/injection, schedule: Q01DX001 (ip), vehicle: carboxymethylcellulose (CMC) 111 % of control | dose: 200.0 mg/kg/injection, schedule: Q01DX001 (ip), vehicle: carboxymethylcellulose (CMC) 113 % of control

c1ccc(C2=Nc3ccccc3-c3ccccc3N2)cc1
inactive: [5] 100 % of control | [8] 103 % of control | [11] 106 % of control

O=C(Cc1ccccc1)Nc1ccc(Cl)c(Cl)c1
inactive: dose: 100.0 mg/kg/injection, schedule: Q04DX002 (ip), vehicle: Klucel (hydroxypropylcellulose) (HPC) 100 % of control | dose: 200.0 mg/kg/injection, schedule: Q04DX002 (ip), vehicle: Klucel (hydroxypropylcellulose) (HPC) 100 % of control | dose: 400.0 mg/kg/injection, schedule: Q04DX002 (ip), vehicle: Klucel (hydroxypropylcellulose) (HPC) 96 % of control

C1CN(C[C@H]2COC[C@@H](CN3CCOCC3)O2)CCO1
inactive: dose: 75.0 mg/kg/injection, schedule: Q04DX003 (ip), vehicle: saline 98 % of control | dose: 150.0 mg/kg/injection, schedule: Q04DX003 (ip), vehicle: saline 106 % of control | dose: 300.0 mg/kg/injection, schedule: Q04DX003 (ip), vehicle: saline 95 % of control

CCOC(=O)N1C2C=CC(C2)N1C(=O)OCC
inactive: dose: 100.0 mg/kg/injection, schedule: Q04DX002 (sc), vehicle: olive oil, sesame oil, peanut oil 94 % of control | dose: 200.0 mg/kg/injection, schedule: Q04DX002 (sc), vehicle: olive oil, sesame oil, peanut oil 102 % of control | dose: 400.0 mg/kg/injection, schedule: Q04DX002 (sc), vehicle: olive oil, sesame oil, peanut oil 97 % of control

COc1ccccc1[As](=O)(O)CC(O)COc1ccccc1 (stereo unspecified)
inactive: [21] 91 % of control

Cn1ccc(=O)c2cc([N+](=O)[O-])ccc21
inactive: dose: 25.0 mg/kg/injection, schedule: Q01DX009 (ip), vehicle: water 90 % of control | dose: 50.0 mg/kg/injection, schedule: Q01DX009 (ip), vehicle: water 93 % of control | dose: 100.0 mg/kg/injection, schedule: Q01DX009 (ip), vehicle: water 86 % of control | [6] 104 % of control and 106 % of control | [7] 115 % of control and 90 % of control | dose: 200.0 mg/kg/injection, schedule: Q01DX009 (ip), vehicle: water 95 % of control | [9] 109 % of control and 87 % of control | [10] 97 % of control and 102 % of control | [12] 87 % of control and 88 % of control | [13] 88 % of control

c1cc2c3c(c1)nc(CCc1nc4cccc5c4n1CCC5)n3CCC2
inactive: [21] 101 % of control | [4] 95 % of control | [7] 93 % of control and 87 % of control | [13] 87 % of control

CCCS/C(N)=N/N=C/c1ccc([N+](=O)[O-])o1
inactive: dose: 50.0 mg/kg/injection, schedule: Q01DX001 (ip), vehicle: other 96 % of control | dose: 100.0 mg/kg/injection, schedule: Q01DX001 (ip), vehicle: other 94 % of control

CCOC(=O)C(C#N)C(C)CC (stereo unspecified)
inactive: [22] 102 % of control | dose: 100.0 mg/kg/injection, schedule: Q04DX003 (ip), vehicle: Klucel (hydroxypropylcellulose) (HPC) 98 % of control | [23] 98 % of control | dose: 200.0 mg/kg/injection, schedule: Q04DX003 (ip), vehicle: Klucel (hydroxypropylcellulose) (HPC) 102 % of control | [24] 94 % of control | dose: 400.0 mg/kg/injection, schedule: Q04DX003 (ip), vehicle: Klucel (hydroxypropylcellulose) (HPC) 90 % of control

CCOC(=O)CCCN(c1sc(C)c(C)c1C(=O)OCC)S(=O)(=O)c1ccc(C)cc1
inactive: dose: 50.0 mg/kg/injection, schedule: Q01DX009 (ip), vehicle: Klucel (hydroxypropylcellulose) (HPC) 86 % of control | [4] 97 % of control | [22] 105 % of control | [7] 97 % of control | [23] 86 % of control | [10] 97 % of control | [24] 90 % of control | [13] 101 % of control

COc1ccc2oc(=O)[nH]c2c1
inactive: [5] 100 % of control | [8] 100 % of control | [11] 100 % of control

O=NN(CC(F)(F)F)C(=O)NCC(F)(F)F
inactive: dose: 8.0 mg/kg/injection, schedule: Q01DX001 (ip), vehicle: carboxymethylcellulose (CMC) 113 % of control | [14] 113 % of control | [15] 113 % of control | [16] 113 % of control | [17] 113 % of control | dose: 187.0 mg/kg/injection, schedule: Q01DX001 (ip), vehicle: carboxymethylcellulose (CMC) 112 % of control | [18] 107 % of control | [19] 113 % of control | [20] 118 % of control
